Experimental data from US12083227B2, “Solid pharmaceutical formulations for treating endometriosis, uterine fibroids, polycystic ovary syndrome or adenomyosis” (priority 2017, dated 2024).

Key:
women with endometriosis = test: Phase 3 studies EM-I and EM-II with extension studies EM-III and EM-IV (pooled efficacy, pharmacodynamics, safety); assay type: in vivo, human; details: for Depressed Mood, depression, depressive symptoms and or tearfulness: Placebo 17 (2.3); for Mood altered, mood swings: Placebo 25 (3.4); for Completed Suicide: EM-1 and EM-2; for patients with a Z-score below the normal lower bound of −2.0: following 12 months of treatment
From the text: Each placebo-controlled study assessed the reduction in endometriosis-associated pain over 6 months of treatment. More than 75 percent of women who completed Study EM-I and EM-II enrolled in the extension studies for an additional 6 month treatment period. Subjects were followed for up to 12 months post-treatment. Women in these studies also provided a daily self-assessment of their endometriosis pain using the Numeric Rating Scale (NRS), on a scale ranging from 0 (no pain) to 10 (worst pain ever). […] The effects of elagolix on menstrual bleeding were evaluated for up to 12 months using an electronic daily diary where subjects classified their flow of menstrual bleeding (if present in the last 24 hours) as spotting, light, medium, or heavy. […] The population age range was 18-49 years old. Women who completed six months of treatment and met eligibility criteria continued treatment in two blinded six-month extension studies, for a total treatment duration of up to 12 months. In the placebo-controlled and extension clinical studies, BMD was measured by DXA. Changes observed in BMD at other anatomical sites (femoral neck, total hip) were generally smaller than lumbar spine.

[1] = biological target: T1, organic anion transporting polypeptide (OATP)1B1 (Homo sapiens, UniProt Q9Y6L6); test: substrate status: OATP1B1
T1 sequence (Q9Y6L6 1-691): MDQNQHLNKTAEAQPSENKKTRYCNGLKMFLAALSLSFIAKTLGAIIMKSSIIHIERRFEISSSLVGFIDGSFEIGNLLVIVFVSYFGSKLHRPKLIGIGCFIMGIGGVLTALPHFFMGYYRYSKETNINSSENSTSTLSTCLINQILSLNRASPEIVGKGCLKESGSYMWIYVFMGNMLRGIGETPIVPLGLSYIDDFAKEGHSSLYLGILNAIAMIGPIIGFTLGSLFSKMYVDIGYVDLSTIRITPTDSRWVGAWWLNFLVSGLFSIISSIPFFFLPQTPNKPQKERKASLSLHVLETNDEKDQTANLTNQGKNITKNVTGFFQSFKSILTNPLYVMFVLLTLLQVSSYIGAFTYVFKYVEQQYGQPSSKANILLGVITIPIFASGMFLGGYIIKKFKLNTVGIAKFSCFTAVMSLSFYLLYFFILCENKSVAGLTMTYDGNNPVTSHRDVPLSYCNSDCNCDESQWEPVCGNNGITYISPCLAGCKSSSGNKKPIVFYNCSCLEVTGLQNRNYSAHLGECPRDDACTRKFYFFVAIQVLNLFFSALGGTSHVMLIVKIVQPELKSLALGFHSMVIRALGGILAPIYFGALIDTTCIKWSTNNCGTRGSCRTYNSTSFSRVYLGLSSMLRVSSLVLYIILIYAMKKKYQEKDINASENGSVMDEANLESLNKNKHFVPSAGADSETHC
From the text: Elagolix is a substrate of CYP3A, P-gp, and organic anion transporting polypeptide (OATP)1B1. Clinically meaningful interactions are not expected when elagolix is co-administered with drugs that inhibit CYP3A or P-gp.

tumors in rat = test: 2-year carcinogenicity study in rats; assay type: in vivo
From the text: The rat tumors were identified as being species-specific and of negligible relevance to humans. This conclusion is based on a follow-on thyroid and hepatic effects-related investigative study performed to document the possibility that thyroid and liver tumors may be specific to rat and occurred via induction of hepatic drug metabolizing enzymes at the high dose.

tumors in mouse = test: 2-year carcinogenicity study in mice; assay type: in vivo; details: any dose
[2] = acid dissociation constants by potentiometric titration; assay type: physicochemical
Method: The acid dissociation constants were determined by potentiometric titration method. […] The first is XH2+, where the carboxylic acid is not ionized but the secondary amine is; the molecule has an overall +1 charge, and the main species at pHs below 4.0. The second is XH, where both the carboxylic acid and the tertiary amine are ionized. […] The third is X−, where the carboxylic acid is ionized but the tertiary amine is not.

[3] = system: fertility and reproductive organs of rats; test: fertility study and repeat-dose study in rats; assay type: in vivo, rat
From the text: (§1) Based on pharmacologic actions of elagolix in humans a reversible effect on fertility may be expected in women.

[4] = drug interaction studies: elagolix in the presence of co-administered drug; assay type: in vivo, human; details: for AUC Ratio (co-administration vs. elagolix alone) / Cmax Ratio (co-administration vs. elagolix alone): elagolix 150 mg single dose
Method: Drug interaction studies were performed with elagolix and other drugs that are likely to be co-administered and with drugs commonly used as probes for pharmacokinetic interactions.

[5] = system: reproductive organs of monkeys; test: repeat-dose study in monkeys; assay type: in vivo, monkey; details: repeat-dose, 75, 150, 300 and 600 mg/kg/day, all doses
From the text: as §1

[6] = lactation study in rats (elagolix in diet through gestation and lactation); assay type: in vivo, rat; details: dams 400 mg/kg daily in diet
Method: Pregnant rats were given diet containing elagolix throughout the gestation and lactation periods to achieve a daily elagolix dose of 400 mg/kg. During nursing the dams and litters were divided into restricted feeding and non-restricted groups to determine whether elagolix was secreted in the mother's milk. […] In pups of the non-restricted feeding group, elagolix plasma concentrations were measurable and approximately 1% of the mother's plasma concentrations.

[7] = Ketoconazole 400 mg once daily, N 11
[8] = Rifampin 600 mg single dose, N 12

SMILES: COc1cccc(-c2c(C)n(Cc3c(F)cccc3C(F)(F)F)c(=O)n(C[C@H](NCCCC(=O)O)c3ccccc3)c2=O)c1F [elagolix, 4-((R)-2-[5-(2-fluoro-3-methoxy-phenyl)-3-(2-fluoro-6-trifluoromethyl-benzyl)-4-methyl-2,6-dioxo-3,6-dihydro-2H-pyrimidin-1-yl]-1-phenyl-ethylamino)-butyric acid]
- Suicidal ideation (women with endometriosis; 150 mg Once Daily (N = 475)): 1 (0.2) N (%)
- Depressed Mood, depression, depressive symptoms and or tearfulness (women with endometriosis; 150 mg Once Daily (N = 475)): 13 (2.7) N (%)
- Mood altered, mood swings (women with endometriosis; 150 mg Once Daily (N = 475)): 25 (5.7) N (%)
- Numeric Rating Scale (NRS) scores of endometriosis pain (women with endometriosis; 150 mg QD and 200 mg BID vs placebo at Month 3 and Month 6, p<0.001): significant reduction
- percentage of days per month of the opioid or naproxen rescue medication use (women with endometriosis; 200 mg BID compared to placebo): significant reduction
- Suicidal ideation (women with endometriosis; 200 mg Twice Daily (N = 477)): 1 (0.2) N (%)
- Depressed Mood, depression, depressive symptoms and or tearfulness (women with endometriosis; 200 mg Twice Daily (N = 477)): 29 (6.1) N (%)
- Mood altered, mood swings (women with endometriosis; 200 mg Twice Daily (N = 477)): 25 (5.2) N (%)
- Completed Suicide (women with endometriosis; 150 mg Once Daily (N = 475)): 1 (0.2) N (%)
- Completed Suicide (women with endometriosis; 200 mg Twice Daily (N = 477)): 0 N (%)
- resumption of menses after stopping, % of women (women with endometriosis; after 6 months of 150 mg once daily, within 1 month): 59%
- resumption of menses after stopping, % of women (women with endometriosis; after 6 months of 150 mg once daily, within 2 months): 87%
- resumption of menses after stopping, % of women (women with endometriosis; after 6 months of 150 mg once daily, within 6 months): 95%
- resumption of menses after stopping, % of women (women with endometriosis; after 6 months of 200 mg twice daily, within 1 month): 60%
- resumption of menses after stopping, % of women (women with endometriosis; after 6 months of 200 mg twice daily, within 2 months): 88%
- resumption of menses after stopping, % of women (women with endometriosis; after 6 months of 200 mg twice daily, within 6 months): 97%
- resumption of menses after stopping, % of women (women with endometriosis; after 12 months of 150 mg once daily, within 1 month): 77%
- resumption of menses after stopping, % of women (women with endometriosis; after 12 months of 150 mg once daily, within 2 months): 95%
- resumption of menses after stopping, % of women (women with endometriosis; after 12 months of 150 mg once daily, within 6 months): 98%
- resumption of menses after stopping, % of women (women with endometriosis; after 12 months of 200 mg twice daily, within 1 month): 55%
- resumption of menses after stopping, % of women (women with endometriosis; after 12 months of 200 mg twice daily, within 2 months): 91%
- resumption of menses after stopping, % of women (women with endometriosis; after 12 months of 200 mg twice daily, within 6 months): 96%
- recovery of BMD at lumbar spine, total hip and femoral neck (women with endometriosis; both treatment groups, post-treatment months 6 and 12): progressive recovery of BMD
- patients with a Z-score below the normal lower bound of −2.0 (women with endometriosis; 150 mg daily dose): no patient
- patients with a Z-score below the normal lower bound of −2.0 (women with endometriosis; 200 mg BID): less than 1%
- percentage of days in which rescue opioid medication was taken (women with endometriosis; pooled analysis of two phase 3 trials, 150 QD and 200 BID vs placebo): significant reduction
- mean percent daily pill counts (rescue opioid) (women with endometriosis; pooled analysis, 200 mg BID vs placebo): significant reduction
- substrate of OATP1B1 [1]: substrate
- carcinogenicity: tumors (tumors in rat; 2-year, high dose, considered species-specific): increase in thyroid (male and female) and liver (males only) tumors
- margin of safety at the high dose (tumors in rat; both, in vivo, 2 years): 13 fold
- carcinogenicity: tumors (tumors in mouse): no increase in tumors
- pKa (B) ([2]; amine): 7.9
- pKa (A) ([2]; carboxylic acid): 4.0
- effect on fertility ([3]; fertility study, 50, 150, 300 mg/kg/day): no effect
- ovary findings ([3]; repeat-dose study, 600, 800 mg/kg/day): involution and a decrease in corpora lutea in ovaries
- AUC Ratio (co-administration vs. elagolix alone) [4, 7]: 2.20
- Cmax Ratio (co-administration vs. elagolix alone) [4, 7]: 1.77
- AUC Ratio (co-administration vs. elagolix alone) ([4]; Rifampin 600 mg once daily): 1.65
- Cmax Ratio (co-administration vs. elagolix alone) ([4]; Rifampin 600 mg once daily): 2.00
- AUC Ratio (co-administration vs. elagolix alone) [4, 8]: 5.58
- Cmax Ratio (co-administration vs. elagolix alone) [4, 8]: 4.37
- direction of the change in AUC of elagolix ([4]; co-administered with rifampin): ↑ elagolix
- reproductive organ findings (cervix, uterus and vagina) [5]: reversible atrophy of reproductive organs
- plasma concentrations in pups relative to the mother's plasma concentrations ([6]; rat pups of non-restricted feeding group): approximately 1%
- plasma concentrations in pups ([6]; rat pups of restricted feeding litters, post natal day 10 and 20): not measurable
